The values below come from a melting point compilation (Tetko et al.; mined from patent text by program, amines drawn as free bases though some values may be those of a salt).

Each structure is given as a SMILES string.

With `CC(C)c1ccc(C(=O)N2CCOCC2)cc1N`, the melting point lay in the range of 112 to 115 °C.
As for `CC(C)(O)CNc1nccc(-c2c(-c3ccc(F)cc3F)nc3c(CC4CC4)nccn23)n1`, the figure is 174 to 176 °C; as for `CCOC(=O)c1c(C(=O)OCC)c(-c2ccc(OC)c(OC)c2)c2c(OC)c(OC)c(OC)cc2c1O`, 138 to 140 °C; as for `CCc1nc2c(C#N)cccc2n1-c1ccc(CCNC(=O)NS(=O)(=O)c2ccc(C)cc2)cc1`, 95 to 103 °C.
The compound `Cc1ccc(C(=O)c2cc3cc(OCc4ccccc4)ccc3[nH]2)cc1` had a melting point of 199 to 200 °C.
For the compound `Oc1cc(Nc2nnc(Cc3ccncc3)c3ccccc23)ccc1Cl`, the melting point was in the range of 245 to 246 °C.
Take `O=C(O)CSCc1cc2c(cc1Cc1ccccc1)OCO2`: the melting point is 99.5 to 100 °C.
The value for `COc1ccc(C(C)(O)c2cccc(OCc3nc(-c4ccccc4)oc3C)c2)c(OCCOC(C)=O)c1` (stereo not drawn) was 144 to 145 °C; that for `COCC1=C(C)C(=O)C(OC)=C(OC)C1=O` was 31 to 36 °C; that for `CCCCCCCCc1cnc(-c2ccc(F)cc2)nc1` was 23.5 °C.
The value for `Cc1cc2n(C)c3ncccc3c(=O)n2n1` was 242 °C.
`[O-][N+]1=C(c2ccccc2F)c2cc(Cl)ccc2C=CC1`: the melting point fell in the range of 138 to 139 °C.
The value for `COc1cc2ncc(C#N)c(Nc3ccc(Cl)cc3F)c2cc1OC` was 139 to 141 °C; that for `O=C(c1ccccc1)c1cc[nH]c1` was 96 to 97 °C; that for `O=C1C=C(Br)C(CBr)(NCc2ccccc2)O1` (stereo not drawn) was 137 to 139 °C.
`CCn1c(=O)n(/C(C)=C\SC)c2ccccc21` registered a melting point of 74 °C.
As for `CCC(C(=O)O)c1ccc(N[C@@H](CCC(N)=O)C(=O)O)cc1` (stereo partly drawn), the figure is 166 to 167 °C; as for `CSc1c(C#N)c(=O)n2ccccc2c1C(C)=O`, 178 °C; as for `CCC(=NO)C(C)(C)NCCCN`, 72 to 74 °C.
As for `COCCC(=O)OC[C@@H]1CC(c2ccc(-c3ccc(N4C[C@H](Cn5ccnn5)OC4=O)cc3F)cn2)=NO1`, the figure is 149 °C; as for `CN1CCC(=C2c3cc(C=O)n(C)c3CCn3ncnc32)CC1`, 204 °C; as for `CC(C)(C)c1ccc(S(=O)(=O)Nc2nc(-c3ncccn3)nc(Cl)c2-c2cccs2)cc1`, 130 to 132 °C.
Turning to `CC(=O)c1ccc(Oc2ccc(S(=O)(=O)C3CCCCC3)cn2)cc1`, the melting point lay in the range of 116 to 118 °C.
The value for `Cc1ccnc2c1C(=O)CC(c1ccco1)C2` (stereo not drawn) was 70 to 71 °C; that for `CCOC(=O)C(N)N=Nc1ccc(Br)cc1C(=O)c1ccccn1` (stereo not drawn) was 156 to 157 °C; that for `Cc1cccc(C(C)(C)C)c1NC(=O)NC1(c2cccs2)CCCCC1` was 245 to 246 °C.
The value for `O=C(Cc1ccccn1)c1nc2ccccc2[nH]1` was 202 °C.
As for `O=C1c2cccc(OC(F)=C(F)F)c2C(=O)N1c1ccc(OC(F)=C(F)F)cc1`, the figure is 172 °C.
In the case of `CCC(=O)Nc1cccc(NC(=O)CC(C)(OC)OC)c1`, the melting point was found to be 115 °C.
On to `CC1(C)OC(=O)c2ccc(CO)cc21`, for which the melting point was in the range of 59 to 63 °C.
As for `O=C(Nc1ccccc1O)c1ccc(CSc2ccc(O)cc2)cc1`, the melting point fell in the range of 152 to 156 °C.
The value for `O=C1CCC(c2ccccc2)(c2ccccc2)[C@@H]2CN(C(=S)Cc3ccccc3)C[C@H]12` (racemic) was 221 °C.
The value for `NC(=O)c1cccc(Cc2c[nH]cn2)c1O` was 198 °C.
As for `CCN(CC)C(=O)Cc1ccc(C(=O)c2ccc(Cl)cc2)n1C`, the figure is 82 to 85 °C; as for `Cc1oc(-c2cc(C(F)(F)F)cc(C(F)(F)F)c2)nc1COc1cccc(CN(O)C(N)=O)c1`, 150 to 151 °C.
For the compound `CCOC(=O)c1cc2c(o1)CNCC2(O)c1ccc(C)cc1` (stereo not drawn), the melting point was 194 to 196 °C.
The compound `C=CCN1C(C)(C)CC(OC(=O)CCC(C)(c2ccc(O)c(C(C)(C)C)c2)c2ccc(O)c(C(C)(C)C)c2)CC1(C)C` came in with a melting point of 197 °C.
The value for `Cc1ccc(Cc2cnc(NCCCCc3cc(CN(C)C)ccn3)[nH]c2=O)cn1` was 135 to 137 °C; that for `Cc1ccc(S(=O)(=O)N2CCNCCOCCOCCNCCN(S(=O)(=O)c3ccc(C)cc3)CC2)cc1` was 121 °C; that for `O=C1N(Cc2ccc(C(F)(F)F)o2)c2ccc(F)cc2C1(CO)c1cc2c(cc1O)OCO2` (stereo not drawn) was 92 to 95 °C.
Turning to `COc1ccc(C(=O)C=Cc2cc(Br)ccc2O)cc1`, the melting point is 177 to 179 °C.
As for `CCOc1nc(Nc2ccc(F)c(Cl)c2)nc(NC2CCN(S(C)(=O)=O)CC2)n1`, the figure is 197 to 199 °C; as for `Nc1ccc(C(Cc2ccccc2)C(=O)O)cc1` (stereo not drawn), 196 to 198 °C.
The value for `C1=NCC2Cc3ccccc3Cc3cccc1c32` (stereo not drawn) was 91 to 93 °C; that for `O=C1c2cc(OCc3ccccc3)ccc2OCC1Oc1ccccc1` (stereo not drawn) was 100 to 102 °C; that for `CCOC(=O)CNC(=O)c1cc2c(s1)-n1c(C)nnc1CN=C2c1ccccc1Cl` was 251 to 252 °C.
The value for `CC(=O)Nc1ccc(Cl)cc1S(=O)(=O)CC#N` was 174 °C; that for `C#Cc1cnn2c(C3CC3)cc(-c3ccc(Cl)c(Cl)c3)nc12` was 194 to 196 °C; that for `Clc1cc(I)ccc1CBr` was 44 to 45.5 °C.
`CN1Cc2ccccc2C(Oc2ccc(C#N)cc2)C1` (stereo not drawn) came in with a melting point of 131 to 132 °C.
As for `O=C(Nc1nc(=O)n(S(=O)(=O)c2ccc(Cl)cc2)cc1F)c1ccc(Cl)cc1`, the figure is 169 to 172 °C; as for `CC(C)CN(Cc1nnc(-c2ncn3c2CN(C)C(=O)c2c(Cl)cccc2-3)o1)CC(C)C`, 161 to 163 °C.
As for `CN1CCN(c2nn(S(=O)(=O)c3ccccc3)c3cc(Cl)ccc23)CC1`, the figure is 139 to 141 °C.
`CCCCOC(=O)c1ccc2ccc(C)nc2c1OC(=O)C(C)(C)C` came in with a melting point of 52 °C.
As for `COC(=O)c1c(Cc2ccc(S(=O)(=O)N3CCN(C)CC3)cc2)c(=O)c2ccccc2n1-c1ccccc1`, the figure is 210 to 212 °C; as for `CCOP(=O)(OCC)C(F)(F)c1ccc(CN(Cc2ccc(C(F)(F)P(=O)(OCC)OCC)cc2)C(=O)NCc2ccccc2)cc1`, 124 to 127 °C.
As for `CCCS(=O)(=O)c1cc([C@H]2CC[C@H](c3cc(OC)c(OC)c(OC)c3)O2)cc(OC)c1OCCSc1ccc(N(C)C)cc1` (relative stereo), the figure is 113 to 115 °C; as for `O=C(c1ccc(-c2ccccn2)s1)N1CCCCc2sccc21`, 150 to 154 °C.
The value for `CSc1ccc(C(CC(F)(F)F)=NO)cc1` was 106 to 107 °C; that for `COc1cc(C(=O)CCC(=O)O)ccc1O` was 174 to 175 °C; that for `C[C@H](Oc1ccc(-c2csc(S(N)(=O)=O)c2)cc1)[C@H](O)CCc1cccnc1` was 151 to 152 °C.
Consider `CCCOc1ccc(S(=O)(=O)N2CCN(CC)C(C(=O)OCC)C2)cc1-c1nc2cc3nc[nH]c3cc2c(=O)[nH]1` (stereo not drawn), for which the melting point is 158 to 163 °C.
Regarding `CC(C)(C)c1cc(C=C(C#N)C#N)cc(I)c1O`, the melting point came out at 188 °C.
